Publication PMC11538350, “Synthetic studies on the tetrasubstituted D-ring of cystobactamids lead to potent terephthalic acid antibiotics” (Communications Chemistry, 2024)
≈ marks a conversion by molar mass, not a printed value.

Key:
[1] = tested on: K. pneum. CIP-104298; test: MIC assay; format: cell-based; conditions: Klebsiella pneumoniae, CIP104298; reference strain; read-out: MIC K. pneum. CIP-104298
Procedure: (§1) All cystobactamids were evaluated in MIC-assays on a panel of representative ESKAPE strains with focus on A. baumannii (Tables 1 and 2). Compared to our previous work[10],[17],[18], we specifically included more challenging test strains with known resistances against gyrase inhibitors.
(§2) 2.1 Materials and Methods
(§3) Strains were cultivated according to standard procedures. Bacterial cryo-cultures were
(§4) resuspended into fresh MHBII (cation adjusted) medium. The resuspension
(§5) assay plate (Corning, #3788).
(§6) in parallel as a positive control. […]

[2] = tested on: K. pneum. R-1525; test: MIC assay; format: cell-based; conditions: Klebsiella pneumoniae; read-out: MIC K. pneum. R-1525
Procedure: as §1, §2, §3, §4, §5, §6

[3] = tested on: P. ae. PA14ΔmexAB; test: MIC assay; format: cell-based; conditions: Pseudomonas aeruginosa, read-out: MIC P. ae. PA14ΔmexAB
Procedure: as §1, §2, §3, §4, §5, §6

[4] = tested on: P. ae. PA14; test: MIC assay; format: cell-based; conditions: Pseudomonas aeruginosa, PA14; reference strain; read-out: MIC P. ae. PA14
Procedure: as §1, §2, §3, §4, §5, §6

[5] = tested on: A. baum. CIP-105742; test: MIC assay; format: cell-based; conditions: Acinetobacter baumannii, CIP105742; read-out: MIC A. baum. CIP-105742
Procedure: as §1, §2, §3, §4, §5, §6

[6] = tested on: E. coli ATCC-25922; test: MIC assay; format: cell-based; conditions: Escherichia coli, ATCC25922; reference strain; read-out: MIC E. coli ATCC-25922
Procedure: as §1, §2, §3, §4, §5, §6

[7] = tested on: A. baum. CIP-107292; test: MIC assay; format: cell-based; conditions: Acinetobacter baumannii, CIP107292; read-out: MIC A. baum. CIP-107292
Procedure: as §1, §2, §3, §4, §5, §6

[8] = tested on: A. baum. DSM-30008; test: MIC assay; format: cell-based; conditions: Acinetobacter baumannii, DSM30008; reference strain; read-out: MIC A. baum. DSM-30008
Procedure: as §1, §2, §3, §4, §5, §6

[9] = tested on: A. baum. ATCC BAA-1710; test: MIC assay; format: cell-based; conditions: Acinetobacter baumannii, ATCCBAA1710; read-out: MIC A. baum. ATCC BAA-1710
Procedure: as §1, §2, §3, §4, §5, §6

[10] = tested on: A. baum. R835; test: MIC assay; format: cell-based; conditions: Acinetobacter baumannii; read-out: MIC A. baum. R835
Procedure: as §1, §2, §3, §4, §5, §6

[11] = tested on: S. pneum. DSM-11865 (PRSP); test: MIC assay; format: cell-based; conditions: Streptococcus pneumoniae; read-out: MIC S. pneum. DSM-11865 (PRSP)
Procedure: as §1, §2, §3, §4, §5, §6

[12] = tested on: E. coli LM705; test: MIC assay; format: cell-based; conditions: Escherichia coli, LM705, read-out: MIC E. coli LM705
Procedure: as §1, §2, §3, §4, §5, §6

[13] = tested on: S. aur. ATCC-29213; test: MIC assay; format: cell-based; conditions: Staphylococcus aureus, ATCC29213; reference strain; read-out: MIC S. aur. ATCC-29213
Procedure: as §1, §2, §3, §4, §5, §6

[14] = tested on: E. faec. DSM-17050 (VRE); test: MIC assay; format: cell-based, Enterococcus faecium; conditions: Enterococcus; read-out: MIC E. faec. DSM-17050 (VRE)
Procedure: as §1, §2, §3, §4, §5, §6

[15] = tested on: E. ae. CIP 106754; test: MIC assay; format: cell-based, Enterobacter aerogenes; conditions: Klebsiella aerogenes, CIP106754, read-out: MIC E. ae. CIP 106754
Procedure: as §1, §2, §3, §4, §5, §6

[16] = tested on: K. pneum. KP10581; test: MIC assay; format: cell-based; conditions: Klebsiella pneumoniae; read-out: MIC K. pneum. KP10581
Procedure: as §1, §2, §3, §4, §5, §6

[17] = tested on: E. cloacae ATCC BAA-2468; test: MIC assay; format: cell-based; conditions: Enterobacter cloacae, ATCCBAA2468; read-out: MIC E. cloacae ATCC BAA-2468
Procedure: as §1, §2, §3, §4, §5, §6

[18] = tested on: ESKAPE strains; test: MIC-assays on a panel of representative ESKAPE strains, summary in words; format: cell-based; conditions: summary of the MIC tables
Procedure: as §1, §2, §3, §4, §5, §6

SMILES	MIC [1] [µg/mL]	MIC [2] [µg/mL]	MIC [3] [µg/mL]	MIC [4] [µg/mL]	MIC [5] [µg/mL]	MIC [6] [µg/mL]	MIC [7] [µg/mL]	MIC [8] [µg/mL]	MIC [9] [µg/mL]	MIC [10] [µg/mL]	MIC [11] [µg/mL]	MIC [12] [µg/mL]	MIC [13] [µg/mL]	MIC [14] [µg/mL]	MIC [15] [µg/mL]	MIC [16] [µg/mL]	MIC [17] [µg/mL]	antibacterial activity on the pathogen panel, in words [18]
O=C(O)c1cn(C2CC2)c2cc(N3CCNCC3)c(F)cc2c1=O [CIP, ciprofloxacin, reference compound]	0.025 to 0.05 (≈ 0.0754 to 0.151 µM)	> 64	0.006 to 0.1 (≈ 0.0181 to 0.302 µM)	0.025 to 0.2 (≈ 0.0754 to 0.604 µM)	0.03 to 0.25 (≈ 0.0905 to 0.754 µM)	0.01 to 0.03 (≈ 0.0302 to 0.0905 µM)	64 (≈ 193 µM)	0.05 to 0.25 (≈ 0.151 to 0.754 µM)	32 (≈ 96.6 µM)	32 (≈ 96.6 µM)	> 6.4	> 6.4	0.2 to 1 (≈ 0.604 to 3.02 µM)	0.05 to 4 (≈ 0.151 to 12.1 µM)	> 6.4	–	–	–
CO[C@@H](C(N)=O)[C@H](NC(=O)c1ccc(NC(=O)c2ccc(C#N)cc2)cc1)C(=O)Nc1ccc(C(=O)Nc2ccc(C(=O)Nc3ccc(C(=O)O)cc3)c(O)c2OC(C)C)cc1 [CN861 1, reference compound]	16 (≈ 19 µM)	16 (≈ 19 µM)	1 (≈ 1.19 µM)	16 (≈ 19 µM)	0.25 (≈ 0.297 µM)	0.25 (≈ 0.297 µM)	> 64	1 (≈ 1.19 µM)	8 (≈ 9.5 µM)	64 (≈ 76 µM)	–	0.64 (≈ 0.76 µM)	0.125 (≈ 0.148 µM)	–	4 (≈ 4.75 µM)	2 (≈ 2.38 µM)	32 (≈ 38 µM)	–
C#CCC(NC(=O)c1ccc(NC(=O)c2ccc(C#N)cc2)cc1)C(=O)Nc1ccc(C(=O)Nc2ccc(C(=O)Nc3ccc(C(=O)O)cc3)c(O)c2OC(C)C)cc1 (stereo not shown) [CN-CC-861 2, reference compound]	8 (≈ 10.1 µM)	–	0.03 to 0.5 (≈ 0.0378 to 0.631 µM)	0.5 to 16 (≈ 0.631 to 20.2 µM)	0.02 (≈ 0.0252 µM)	–	0.5 to 1 (≈ 0.631 to 1.26 µM)	0.02 to 0.03 (≈ 0.0252 to 0.0378 µM)	0.06 to 0.25 (≈ 0.0757 to 0.315 µM)	1 (≈ 1.26 µM)	–	0.03 to 0.2 (≈ 0.0378 to 0.252 µM)	0.02 (≈ 0.0252 µM)	< 0.03	0.125 to 4 (≈ 0.158 to 5.05 µM)	0.06 to 0.25 (≈ 0.0757 to 0.315 µM)	–	–
C#CC[C@H](NC(=O)c1ccc(NC(=O)c2ccc(C#N)cc2)cc1)C(=O)Nc1ccc(C(=O)Nc2cc(O)c(C(=O)Nc3ccc(C(=O)O)cc3)cc2OC(C)C)cc1 [Cmpd. 3]	> 64	> 64	> 64	> 64	2 (≈ 2.52 µM)	1 (≈ 1.26 µM)	> 64	1 (≈ 1.26 µM)	> 64	> 64	> 64	> 64	> 64	> 64	> 64	> 64	> 64	–
C#CCC(NC(=O)c1ccc(NC(=O)c2ccc(C#N)cc2)cc1)C(=O)Nc1ccc(C(=O)Nc2ccc(C(=O)Nc3ccc(C(=O)O)cc3)c(Cl)c2OC(C)C)cc1 (stereo not shown) [Cmpd. 5]	> 64	> 64	> 64	> 64	> 8	> 64	> 8	> 8	> 8	> 8	> 64	> 64	> 64	> 64	> 64	> 64	> 64	abolished the activity in all tested strains
C#CC[C@H](NC(=O)c1ccc(NC(=O)c2ccc(C#N)cc2)cc1)C(=O)Nc1ccc(C(=O)Nc2ccc(C(=O)Nc3ccc(C(=O)O)cc3)c(Br)c2OC(C)C)cc1 [Cmpd. 6]	> 64	> 64	> 64	> 64	> 8	> 64	> 8	> 8	> 8	> 8	> 64	> 64	> 64	> 64	> 64	> 64	> 64	abolished the activity in all tested strains
C#CC[C@H](NC(=O)c1ccc(NC(=O)c2ccc(C#N)cc2)cc1)C(=O)Nc1ccc(C(=O)Nc2ccc(C(=O)Nc3ccc(C(=O)O)cc3)c(O)c2OC)cc1 [Cmpd. 10]	–	32 (≈ 41.8 µM)	–	–	–	< 0.03	4 (≈ 5.23 µM)	–	0.25 (≈ 0.327 µM)	4 (≈ 5.23 µM)	< 0.03	< 0.03	0.5 (≈ 0.654 µM)	–	4 (≈ 5.23 µM)	1 (≈ 1.31 µM)	16 (≈ 20.9 µM)	–
C#CC[C@H](NC(=O)c1ccc(NC(=O)c2ccc(C#N)cc2)cc1)C(=O)Nc1ccc(CNc2ccc(C(=O)Nc3ccc(C(=O)O)cc3)c(O)c2OC(C)C)cc1 [Cmpd. 40]	> 64	> 64	2 (≈ 2.57 µM)	> 64	0.25 (≈ 0.321 µM)	0.5 to 1 (≈ 0.642 to 1.28 µM)	> 8	0.5 (≈ 0.642 µM)	0.5 (≈ 0.642 µM)	> 8	> 64	> 64	0.5 to 1 (≈ 0.642 to 1.28 µM)	0.25 (≈ 0.321 µM)	> 64	1 (≈ 1.28 µM)	> 64	–
C#CC[C@H](NC(=O)c1ccc(NC(=O)c2ccc(C#N)cc2)cc1)C(=O)Nc1ccc(C(=O)Nc2ccc3c(=O)n(-c4ccc(C(=O)O)cc4)c(C)nc3c2OC(C)C)cc1 [Cmpd. 45a]	> 64	> 64	16 to 32 (≈ 19.6 to 39.2 µM)	> 64	4 (≈ 4.9 µM)	2 to 4 (≈ 2.45 to 4.9 µM)	> 8	8 (≈ 9.81 µM)	0.5 to 1 (≈ 0.613 to 1.23 µM)	> 8	> 64	> 64	4 (≈ 4.9 µM)	2 to 4 (≈ 2.45 to 4.9 µM)	> 64	4 (≈ 4.9 µM)	> 64	–
C#CC[C@H](NC(=O)c1ccc(NC(=O)c2ccc(C#N)cc2)cc1)C(=O)Nc1ccc(C(=O)Nc2ccc3c(=O)n(-c4ccc(C(=O)O)cc4)cnc3c2OC(C)C)cc1 [Cmpd. 45b]	> 64	> 64	> 64	> 64	2 (≈ 2.49 µM)	1 (≈ 1.25 µM)	> 8	1 to 2 (≈ 1.25 to 2.49 µM)	> 8	> 8	> 64	> 64	8 (≈ 9.98 µM)	1 (≈ 1.25 µM)	> 64	16 (≈ 20 µM)	> 64	–
CO[C@@H](C(N)=O)[C@H](NC(=O)c1ccc(NC(=O)c2ccc(C#N)cc2)cc1)C(=O)Nc1ccc(C(=O)Nc2ccc(C(=O)N(C)c3ccc(C(=O)O)cc3)c(O)c2OC(C)C)cc1 [Cmpd. 46]	> 64	> 64	> 64	> 64	> 8	< 0.03	> 8	> 8	> 8	> 8	> 64	> 64	> 64	> 64	> 64	> 64	> 64	–
C#CC[C@H](NC(=O)c1ccc(NC(=O)c2ccc(C#N)cc2)cc1)C(=O)Nc1ccc(C(=O)Nc2ccc(-c3ncc4cc(C(=O)O)ccc4n3)c(O)c2OC(C)C)cc1 [Cmpd. 47]	> 64	–	> 64	> 64	> 64	–	> 64	> 64	–	> 64	–	> 64	> 64	–	–	> 64	–	–
C#CC[C@H](NC(=O)c1ccc(NC(=O)c2ccc(C#N)cc2)cc1)C(=O)Nc1ccc(C(=O)Nc2ccc(-c3nc4ccc(C(=O)O)cc4[nH]3)c(O)c2OC(C)C)cc1 [Cmpd. 48]	> 64	> 64	> 64	> 64	> 8	64 (≈ 81 µM)	> 8	8 (≈ 10.1 µM)	> 8	> 8	> 64	> 64	4 (≈ 5.06 µM)	2 (≈ 2.53 µM)	> 64	16 (≈ 20.3 µM)	> 64	–
